The source of these data is the NIST ThermoML archive (doi:10.1021/je9003178).

The nature of this data set: activity coefficient (dimensionless); of the first substance listed, at infinite dilution; xn = mol fraction of the nth substance listed. The conditions noted are these: Liquid, Chromatography, x1 = 0.

The structures appear in SMILES notation. Numbers after ± are expanded uncertainties.

Turning to `CCN(CC)CC` [triethylamine] + CCn1cc[n+](C)c1.N#CN=C=[N-], the activity coefficient (322.65 K) stood at 9.09 ± 0.42, the activity coefficient (332.85 K) came to 35.8 ± 1.7 and the activity coefficient (343.15 K) turned out to be 131 ± 6.2.
On to `C=CCCCC` [hex-1-ene] + CCCCCC[N+](C)(C)C.O=S(=O)([N-]S(=O)(=O)C(F)(F)F)C(F)(F)F, for which the activity coefficient reads like this: (322.65 K) 5.8 ± 0.27; (343.85 K) 5.55 ± 0.25; (352.65 K) 5.58 ± 0.26.
Regarding `CCC(C)CC` [3-methylpentane] + CCn1cc[n+](C)c1.N#CN=C=[N-], the activity coefficient runs as follows: (322.65 K) 93.7 ± 4.4; (332.85 K) 87.2 ± 4.1; (343.15 K) 81.4 ± 3.8.
With `C1COCCO1` [1,4-dioxane] + CCn1cc[n+](C)c1.N#CN=C=[N-], the activity coefficient by setting is: (322.65 K) 0.89 ± 0.03; (332.85 K) 1.24 ± 0.04; (343.15 K) 1.25 ± 0.04.
In the case of `C=O` [methanal] + CCCCCC[N+](C)(C)C.O=S(=O)([N-]S(=O)(=O)C(F)(F)F)C(F)(F)F, the activity coefficient is, setting by setting: (322.65 K) 0.228 ± 0.037; (343.85 K) 0.272 ± 0.036; (352.65 K) 0.311 ± 0.035.
The matching figures for `ClC(Cl)Cl` [trichloromethane] + CCCCCC[N+](C)(C)C.O=S(=O)([N-]S(=O)(=O)C(F)(F)F)C(F)(F)F: 0.89 ± 0.027, 0.929 ± 0.026 and 0.966 ± 0.026.
As to `Cc1ccccc1` [toluene] + CCn1cc[n+](C)c1.N#CN=C=[N-], the activity coefficient amounted to 4.22 ± 0.19 (322.65 K), 4.21 ± 0.19 (332.85 K) and 4.21 ± 0.19 (343.15 K).
Turning to `CCCC(C)=O` [pentan-2-one] + CCCCCC[N+](C)(C)C.O=S(=O)([N-]S(=O)(=O)C(F)(F)F)C(F)(F)F, the activity coefficient is, setting by setting: (322.65 K) 0.612 ± 0.031; (343.85 K) 0.638 ± 0.03; (352.65 K) 0.663 ± 0.03.
The matching figures for `CC(C)CC(C)(C)C` [2,2,4-trimethylpentane] + CCCCCC[N+](C)(C)C.O=S(=O)([N-]S(=O)(=O)C(F)(F)F)C(F)(F)F: 13.1 ± 0.6, 12.1 ± 0.56 and 11.8 ± 0.54.
For the compound `CCCCCCCCC` [nonane] + CCCCCC[N+](C)(C)C.O=S(=O)([N-]S(=O)(=O)C(F)(F)F)C(F)(F)F, the activity coefficient runs as follows: (322.65 K) 28.9 ± 1.3; (343.85 K) 24.6 ± 1.1; (352.65 K) 23.4 ± 1.1.
With `c1ccncc1` [pyridine] + CCn1cc[n+](C)c1.N#CN=C=[N-], the activity coefficient was found to be 0.4 ± 0.03 (322.65 K), 1.05 ± 0.03 (332.85 K) and 1.07 ± 0.03 (343.15 K).
`CCC(C)=O` [butanone] + CCn1cc[n+](C)c1.N#CN=C=[N-]: the activity coefficient runs as follows: (322.65 K) 1.59 ± 0.06; (332.85 K) 1.46 ± 0.06; (343.15 K) 1.33 ± 0.05.
The matching figures for `CCCC=O` [butanal] + CCn1cc[n+](C)c1.N#CN=C=[N-]: 2.23 ± 0.1, 2.22 ± 0.1 and 2.21 ± 0.1.
For `ClC(Cl)(Cl)Cl` [tetrachloromethane] + CCn1cc[n+](C)c1.N#CN=C=[N-], in that order: 4.49 ± 0.2, 4.61 ± 0.21 and 4.71 ± 0.21.
As for `CCC[N+](=O)[O-]` [1-nitropropane] + CCCCCC[N+](C)(C)C.O=S(=O)([N-]S(=O)(=O)C(F)(F)F)C(F)(F)F, the activity coefficient came to 0.699 ± 0.03 (322.65 K), 0.681 ± 0.03 (343.85 K) and 0.695 ± 0.03 (352.65 K).
In the case of `CCCCCCCCCCCCCC` [tetradecane] + CCn1cc[n+](C)c1.N#CN=C=[N-], the activity coefficient was determined as 2500 ± 120 (322.65 K), 2330 ± 110 (332.85 K) and 2190 ± 110 (343.15 K).
